Reference: publication PMC7256108 (Cellular and Molecular Life Sciences: CMLS, 2019)
Values joined by “and” are separate entries in the source; they are usually repeats but may differ in a detail not shown here. Equal entries are not always repeated. Where two headings read alike, the source gives them in different places.

Assays:
Type in all cases: cell-based
OR2M3 C241A = target: T1, OR2M3 C241A (Homo sapiens, UniProt Q8NG83, C241A); experiment: GloSensor assay, OR2M3 C241A; details: OR2M3 Cys241 to alanine; in the absence or presence of Cu^2+
T1 construct: 39aa rho-tag; expressed in transfected cells; host or cells: NxG 108CC15 or HEK-293 cells
Experimental: (§1) All receptor variants used were generated by PCR-based site-directed mutagenesis in two steps. Gene-specific primers (mutation primers) were used according to Table S2 and Table S3. The mutation primers, which carried the changed nucleotides, were designed overlapping.
(§2) The assay was performed as reported above.
(§3) All data are presented as mean ± SD.

OR2M3 C112S = target: T2, OR2M3 C112S (Homo sapiens, UniProt Q8NG83, C112S); experiment: GloSensor assay, OR2M3 C112S; details: presence of copper 10 µmol/L, agonist 20 µmol/L
T2 construct: 39aa rho-tag; expressed in transfected cells; host or cells: NxG 108CC15 or HEK-293 cells
Experimental: as §1, §2, §3

OR2M3 C202S = target: T3, OR2M3 C202S (Homo sapiens, UniProt Q8NG83, C202S); experiment: GloSensor assay, OR2M3 C202S; details: even in the presence of Cu^2+, agonist 20 µmol/L
T3 construct: full-length gene-specific forward and reverse primers were added; 39aa rho-tag; expressed in transfected cells; host or cells: NxG 108CC15 or HEK-293 cells
Experimental: as §1, §2, §3

OR2M3 I207L = target: T4, OR2M3 I207L (Homo sapiens, UniProt Q8NG83, I207L); experiment: GloSensor assay, OR2M3 I207L; details: OR2M3 I207L (SNP haplotype)
T4 construct: full-length gene-specific forward and reverse primers were added; 39aa rho-tag; expressed in transfected cells; host or cells: NxG 108CC15 or HEK-293 cells
Excerpt: as §1, §3
(§4) (a) Schematic snake diagram with localization of mutated amino acid positions within OR2M3, which have been chosen because of their close vicinity to putative interaction sites with odorants as proposed by Man et al. (red circles). Effects of 3-mercapto-2-methylpentan-1-ol on OR2M3 variants (black curves) with SNP-defined single amino acid changes at positions 104^3.32 (b), 206^5.45 (c), and 207^5.46 (d). Note that the same data set for 3-mercapto-2-methylpentan-1-ol on OR2M3 wt (grey, see also Fig. 1b, d) is given in panels (b)-(d) for didactic reasons. […] RLU = relative luminescence unit. 3MMP = 3-mercapto-2-methylpentan-1-ol.

OR2M3 C203A = target: T5, OR2M3 C203A (Homo sapiens, UniProt Q8NG83, C203A); experiment: GloSensor assay, OR2M3 C203A; details: even in the presence of Cu^2+, agonist 20 µmol/L
T5 construct: 39aa rho-tag; expressed in transfected cells; host or cells: NxG 108CC15 or HEK-293 cells
Experimental: as §1, §2, §3

OR2M3 wt = target: T6, OR2M3 wt (Homo sapiens, UniProt Q8NG83); experiment: cAMP-luminescence GloSensor assay, recombinant OR2M3 wt; details: OR2M3 wt
T6 construct: full-length gene-specific forward and reverse primers were added; 39aa rho-tag; expressed in transfected cells; host or cells: NxG 108CC15 or HEK-293 cells
T6 sequence (Q8NG83 1-312): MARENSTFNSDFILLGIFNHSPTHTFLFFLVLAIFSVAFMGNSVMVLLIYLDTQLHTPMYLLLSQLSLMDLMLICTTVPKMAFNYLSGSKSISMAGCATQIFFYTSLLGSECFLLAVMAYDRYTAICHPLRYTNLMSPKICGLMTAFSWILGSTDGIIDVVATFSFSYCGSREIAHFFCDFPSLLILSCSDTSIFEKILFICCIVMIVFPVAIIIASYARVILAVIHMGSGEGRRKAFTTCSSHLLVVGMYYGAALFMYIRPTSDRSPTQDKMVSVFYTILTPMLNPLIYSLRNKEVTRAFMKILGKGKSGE
Experimental: as §2, §3

OR2M3 C112A = target: T7, OR2M3 C112A (Homo sapiens, UniProt Q8NG83, C112A); experiment: GloSensor assay, OR2M3 C112A
T7 construct: 39aa rho-tag; expressed in transfected cells; host or cells: NxG 108CC15 or HEK-293 cells
Experimental: as §1, §2, §3

OR2M3 Y104C = target: T8, OR2M3 Y104C (Homo sapiens, UniProt Q8NG83, Y104C); experiment: GloSensor assay, OR2M3 Y104C; details: OR2M3 Y104C (SNP haplotype)
T8 construct: full-length gene-specific forward and reverse primers were added; 39aa rho-tag; expressed in transfected cells; host or cells: NxG 108CC15 or HEK-293 cells
Excerpt: as §1, §3, §4

OR2M3 C203S = target: T9, OR2M3 C203S (Homo sapiens, UniProt Q8NG83, C203S); experiment: GloSensor assay, OR2M3 C203S; details: 10 µmol/L Cu^2+, read-out: EC50 in the presence of Cu^2+
T9 construct: 39aa rho-tag; expressed in transfected cells; host or cells: NxG 108CC15 or HEK-293 cells
Experimental: as §1, §2, §3

OR2M3 C202A = target: T10, OR2M3 C202A (Homo sapiens, UniProt Q8NG83, C202A); experiment: GloSensor assay, OR2M3 C202A; details: even in the presence of Cu^2+, agonist 20 µmol/L
T10 construct: 39aa rho-tag; expressed in transfected cells; host or cells: NxG 108CC15 or HEK-293 cells
Experimental: as §1, §2, §3

OR2M3 C203Y = target: T11, OR2M3 C203Y (Homo sapiens, UniProt Q8NG83, C203Y); experiment: GloSensor assay, OR2M3 C203Y; details: in the absence or presence of Cu^2+
T11 construct: full-length gene-specific forward and reverse primers were added; 39aa rho-tag; expressed in transfected cells; host or cells: NxG 108CC15 or HEK-293 cells
Experimental: as §1, §2, §3

OR2M3 T105A = target: T12, OR2M3 T105A (Homo sapiens, UniProt Q8NG83, T105A); experiment: GloSensor assay, OR2M3 T105A
T12 construct: 39aa rho-tag; expressed in transfected cells; host or cells: NxG 108CC15 or HEK-293 cells
Experimental: as §1, §2, §3

OR2M3 H244A = target: T13, OR2M3 H244A (Homo sapiens, UniProt Q8NG83, H244A); experiment: GloSensor assay, OR2M3 H244A; details: OR2M3 His244 to alanine; in the absence or presence of Cu^2+
T13 construct: 39aa rho-tag; expressed in transfected cells; host or cells: NxG 108CC15 or HEK-293 cells
Experimental: as §1, §2, §3

OR2M3 M206I = target: T14, OR2M3 M206I (Homo sapiens, UniProt Q8NG83, M206I); experiment: GloSensor assay, OR2M3 M206I; details: OR2M3 M206I (SNP haplotype)
T14 construct: 39aa rho-tag; expressed in transfected cells; host or cells: NxG 108CC15 or HEK-293 cells
Excerpt: as §1, §3, §4

[1] = 10 µmol/L Cu^2+, read-out: EC50 in the presence of Cu^2+
[2] = presence of copper 10 µmol/L, agonist 20 µmol/L

T12 sequence (Q8NG83 whole entry T105A): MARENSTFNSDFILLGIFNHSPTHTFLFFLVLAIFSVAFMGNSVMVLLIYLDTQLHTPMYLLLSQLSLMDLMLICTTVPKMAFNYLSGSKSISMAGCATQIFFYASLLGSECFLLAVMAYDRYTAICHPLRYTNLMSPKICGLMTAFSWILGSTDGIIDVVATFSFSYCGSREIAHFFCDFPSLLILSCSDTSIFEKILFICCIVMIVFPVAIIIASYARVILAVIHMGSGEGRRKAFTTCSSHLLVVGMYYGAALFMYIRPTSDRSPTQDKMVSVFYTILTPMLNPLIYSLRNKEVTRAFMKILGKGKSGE
T7 sequence (Q8NG83 whole entry C112A): as the sequence (Q8NG83 whole entry T105A) above, with A105T, C112A counted along it
T11 sequence (Q8NG83 whole entry C203Y): as the sequence (Q8NG83 whole entry T105A) above, with A105T, C203Y counted along it
T2 sequence (Q8NG83 whole entry C112S): as the sequence (Q8NG83 whole entry T105A) above, with A105T, C112S counted along it
T8 sequence (Q8NG83 whole entry Y104C): as the sequence (Q8NG83 whole entry T105A) above, with Y104C, A105T counted along it
T3 sequence (Q8NG83 whole entry C202S): as the sequence (Q8NG83 whole entry T105A) above, with A105T, C202S counted along it
T14 sequence (Q8NG83 whole entry M206I): as the sequence (Q8NG83 whole entry T105A) above, with A105T, M206I counted along it
T9 sequence (Q8NG83 whole entry C203S): as the sequence (Q8NG83 whole entry T105A) above, with A105T, C203S counted along it
T4 sequence (Q8NG83 whole entry I207L): as the sequence (Q8NG83 whole entry T105A) above, with A105T, I207L counted along it
T13 sequence (Q8NG83 whole entry H244A): as the sequence (Q8NG83 whole entry T105A) above, with A105T, H244A counted along it
T10 sequence (Q8NG83 whole entry C202A): as the sequence (Q8NG83 whole entry T105A) above, with A105T, C202A counted along it
T5 sequence (Q8NG83 whole entry C203A): as the sequence (Q8NG83 whole entry T105A) above, with A105T, C203A counted along it
T1 sequence (Q8NG83 whole entry C241A): as the sequence (Q8NG83 whole entry T105A) above, with A105T, C241A counted along it

Q: Which results are given for `CCC(S)C(C)CO` (stereo not shown) [3-Mercapto-2-methylpentan-1-ol, 3-mercapto-2-methylpentan-1-ol]?
A: agonist function in mutant receptor (OR2M3 C241A): not functional anymore; agonist function in mutant receptor (OR2M3 C112S): rescued; agonist function in mutant receptor (OR2M3 C202S): complete loss-of-function; EC50 (OR2M3 I207L): 1.41 ± 0.04 µM; agonist function in mutant receptor (OR2M3 C203A): complete loss-of-function; EC50 (OR2M3 wt; 10 µmol/L Cu^2+, mean ± SD (n = 3–5), read-out: EC50 in the presence of Cu^2+): 0.29 ± 0.1 µM; Relative amplitude (OR2M3 wt; 30 µmol/L AgAc, normalized to wt signal without Cu^2+): 5.72 ± 0.42; EC50 (OR2M3 wt; 30 µmol/L AgAc, read-out: EC50): 0.87 ± 0.5 µM; Relative amplitude (OR2M3 wt; 30 µmol/L AgNO3, normalized to wt signal without Cu^2+): 6.41 ± 1.17; EC50 (OR2M3 wt; 30 µmol/L AgNO3, read-out: EC50): 1.49 ± 0.36 µM; EC50 (OR2M3 wt; 30 µmol/L CoCl2, read-out: EC50): 0.73 ± 0.26 µM; EC50 (OR2M3 wt; 30 µmol/L CuCl2 + copper chelator TEPA, read-out: EC50): 1.13 ± 0.36 µM; EC50 (OR2M3 wt; 30 µmol/L FeCl3, read-out: EC50): 1.67 ± 0.34 µM; EC50 (OR2M3 wt; 30 µmol/L NiCl2, read-out: EC50): 1.09 ± 0.63 µM; Relative amplitude (OR2M3 wt; 30 µmol/L ZnSO4, n.d. = no detectable response up to 60 µmol/L): complete loss-of-function; Relative amplitude (OR2M3 wt; 30 µmol/L colloidal Ag, normalized to wt signal without Cu^2+): 3.52 ± 0.69; EC50 (OR2M3 wt; 30 µmol/L colloidal Ag, read-out: EC50): 0.76 ± 0.35 µM; Hill coefficient (OR2M3 wt; absence of copper (n = 4)): 0.89 ± 0.41; Relative amplitude (OR2M3 wt; copper concentration 60 µmol, normalized to wt signal without Cu^2+): 1.42 ± 0.64; EC50 (OR2M3 wt; copper concentration 60 µmol, read-out: EC50): 1.47 ± 0.12 µM; Relative amplitude (OR2M3 wt; copper concentration 100 µmol, normalized to wt signal without Cu^2+): 0.73 ± 0.48; EC50 (OR2M3 wt; copper concentration 100 µmol, read-out: EC50): 1.95 ± 0.3 µM; EC50 (OR2M3 wt; no metal supplementation (w/o), mean ± SD (n = 3–5), read-out: EC50 in the absence of Cu^2+): 0.45 ± 0.19 µM; EC50 (OR2M3 wt; presence of 30 µmol/L CuCl2, read-out: EC50): 0.55 ± 0.01 µM; Hill coefficient (OR2M3 wt; presence of copper (10 µmol/L) (n = 4)): 1.9 and 1.93 ± 0.71 and ~2; increase in amplitude (OR2M3 wt; supplementation with ionic or colloidal silver, 30 µmol/L): three-to-sixfold increase in amplitude; Relative amplitude (OR2M3 wt; w/o metal, normalized to OR2M3 wt signal with 3-mercapto-2-methylpentan-1-ol (20 µmol/L) in the absence of Cu^2+ (reference)): 1; EC50 (OR2M3 C112A; [1]): 0.86 ± 0.004 µM; agonist function in mutant receptor (OR2M3 C112A; [2]): rescued; EC50 (OR2M3 Y104C): 1.02 ± 0.18 µM; EC50 (OR2M3 C203S): 3.16 ± 0.01 µM; agonist function in mutant receptor (OR2M3 C202A): complete loss-of-function; agonist function in mutant receptor (OR2M3 C203Y): complete loss-of-function; EC50 (OR2M3 T105A; [1]): 0.75 ± 0.27 µM; agonist function in mutant receptor (OR2M3 T105A; [2]): rescued; agonist function in mutant receptor (OR2M3 H244A): not functional anymore; receptor function (response to agonist) (OR2M3 M206I): complete loss-of-function
